Measurements reported in patent publication US10654852B2, “Antibiotics and methods of using same” (THE BROAD INSTITUTE, INC., priority 2016, dated 2020).
Converted amounts (≈) assume the structure as drawn.

Assays:
[1] = tested on: Escherichia coli ATC-25922; assay: MIC, broth microdilution; format: cell-based; details: ATC25922
Source text: As used herein, the term “MIC” refers to minimum inhibitory concentrations. Minimum inhibitory concentrations may be determined by broth microdilution according to the Clinical and Laboratory Standards Institute guidelines (see, e.g., […]-A8. Methods for dilution antimicrobial susceptibility tests for bacteria that grow aerobically: approved standard, 8th Ed.; […] One example for measuring minimum inhibitory concentrations may be found in Reck et al., 2012, J. Med. Chem. 55:6916-6933, the disclosure of which is incorporated by reference. Inoculants may be incubated on blood agar plates for 18 to 24 hours. Incubation may occur at a temperature from about 35° C. to about 37° C. […] In serum supplemented experiments, the testing medium (e.g., DMSO solution) and human serum may be mixed. The ratio of testing medium to human serum may be 1:1 (vol:vol). Plates may be read by spectrophotometry at 620 nm. Unless indicated otherwise, all inhibitory concentrations recited in the specification relate to MICs. The MIC tests were based on broth microdilution method in CLSI-M7. […] Solutions of varying concentrations of DMSO were prepared in wells of a v-bottom 96-well plate (Axygen-WIPP02280). A multi-pipette was used to perform serial dilutions as necessary. From well to well, the drug concentrations were 6.4, 3.2, 1.6, 0.8, 0.4, 0.2, 0.1, 0.05, 0.025, 0.0125, 0.00625 and 0 mg/ml in DMSO. For extremely potent antibiotic, the starting concentrations were adjusted accordingly. This was the drug mother plate. Daughter plates were prepared by placing 98 μl of a testing medium into each well of a u-bottom 96-well plate (Costar 3788). An aliquot of each 2 μl solution from each well of the mother plate was then transferred into the corresponding wells of the daughter plate using a multi-pipette work station (CyBi®-SELMA). Testing media were selected based on CLSI-M7, M11 and […]. Cation adjusted Mueller Hinton Broth (CA-MHB-212322) was the testing medium for majority of bacterial species. […] The MIC values were determined and based on the standards of CLSI methods M7-A7, broth microdilution method. […]

[2] = tested on: Pseudomonas aeruginosa ATCC-BAA-47 (PAO1); assay: MIC (50% NHS); format: cell-based
[3] = Microsomal stability assay, human CLint; format: in vitro ADME; set-up: unit not given here; details: human liver microsomes, 1 μM, 0.5 mg/ml microsomal protein
Description: (§1) The activity profiles of compounds 17, 23, and 24 were assessed by various in vitro measurements. The minimum inhibitory concentration (MIC), MIC in the presence of normal human serum (NHS), microsome CLint, the % of free compounds following a plasma protein biding (PPB) assay, and the concentration of drug where the human-ether-à-go-go-related gene (hERG gene) channel block is halved (IC50(hERG)) were measured using standard in vitro protocols for compounds 17, 23, and 24. Unless otherwise indicated, measurements (e.g., microsomal clearance) were performed using a standard microsomal stability assay using LC/MS/MS techniques.
(§2) Test compounds were incubated at 37° C. with liver microsomes pooled from multiple donors at 1 μM in the presence of a NADPH regenerating system at 0.5 mg/ml microsomal protein. Positive of testosterone (a 3A4 substrate), propafenone (a 2D6 substrate), and diclofenac (a 2c9 substrate) were similarly incubated with microsomes in the presence of a NADPH regenerating system. Samples are removed at 0, 5, 10, 20, 30, and 60 minutes of incubation and immediately mixed with cold acetonitrile containing an internal standard (IS). Samples are then analyzed by LC/MS/MS to determine the disappearance of the test compound and are assessed based on the peak area ratios of analyte/IS (no standard curve).

[4] = tested on: Escherichia coli CCUG-59353; assay: MIC (50% NHS); format: cell-based; details: CCUG59353; Escherichia coli CCUG-59353, 50% NHS
[5] = Microsomal stability assay, mouse CLint; format: in vitro ADME; set-up: unit not given here; details: mouse liver microsomes, 1 μM, 0.5 mg/ml microsomal protein
Description: as §1, §2

[6] = tested on: Serratia marcescens Bizio ATCC-29021; assay: MIC (50% NHS); format: cell-based; details: ATCC29021; Serratia marcescens Bizio ATCC-29021, 50% NHS
[7] = tested on: Enterobacter cloacae ATCC-BAA-1143; assay: MIC (50% NHS); format: cell-based; details: ATCCBAA1143; Enterobacter cloacae ATCC-BAA-1143, 50% NHS
[8] = tested on: Klebsiella pneumonia ATCC-43816; assay: MIC (50% NHS); format: cell-based; details: Klebsiella pneumoniae, ATCC43816; Klebsiella pneumonia ATCC-43816, 50% NHS
[9] = target: T1, hERG Potassium Ion Channel (Homo sapiens, UniProt Q12809); assay: hERG channel block, automated planar clamp (QPatch), CHO cell line; format: cell-based; details: hERG channel in stable CHO cell line
T1 construct: expressed in transfected cells
Description: as §1
Blockade of the cardiac ion channel coded by the hERG gene can lead to cardiac arrhythmia. […] To determine the viability of inventive compounds as pharmacological agents that would not affect the hERG channel blockade, a standard automated planar clamp method was employed to determine the IC50 for various test compounds on their inhibition of the channel. An electrophysiological assay was prepared to measure the electric current passing through the hERG channel expressed in a stable CHO cell line by applying the planar clamp method. This assay was performed using the automated QPatch platform (Sophion, Denmark) which allows fast and accurate electrophysiological characterization of the hERG ion channel and the determination of IC50 values for the test compounds.

[10] = tested on: Citrobacter werkmanii Brenner ATCC-51114; assay: MIC (50% NHS); format: cell-based; details: ATCC51114; Citrobacter werkmanii Brenner ATCC-51114, 50% NHS

T1 sequence (Q12809 whole entry): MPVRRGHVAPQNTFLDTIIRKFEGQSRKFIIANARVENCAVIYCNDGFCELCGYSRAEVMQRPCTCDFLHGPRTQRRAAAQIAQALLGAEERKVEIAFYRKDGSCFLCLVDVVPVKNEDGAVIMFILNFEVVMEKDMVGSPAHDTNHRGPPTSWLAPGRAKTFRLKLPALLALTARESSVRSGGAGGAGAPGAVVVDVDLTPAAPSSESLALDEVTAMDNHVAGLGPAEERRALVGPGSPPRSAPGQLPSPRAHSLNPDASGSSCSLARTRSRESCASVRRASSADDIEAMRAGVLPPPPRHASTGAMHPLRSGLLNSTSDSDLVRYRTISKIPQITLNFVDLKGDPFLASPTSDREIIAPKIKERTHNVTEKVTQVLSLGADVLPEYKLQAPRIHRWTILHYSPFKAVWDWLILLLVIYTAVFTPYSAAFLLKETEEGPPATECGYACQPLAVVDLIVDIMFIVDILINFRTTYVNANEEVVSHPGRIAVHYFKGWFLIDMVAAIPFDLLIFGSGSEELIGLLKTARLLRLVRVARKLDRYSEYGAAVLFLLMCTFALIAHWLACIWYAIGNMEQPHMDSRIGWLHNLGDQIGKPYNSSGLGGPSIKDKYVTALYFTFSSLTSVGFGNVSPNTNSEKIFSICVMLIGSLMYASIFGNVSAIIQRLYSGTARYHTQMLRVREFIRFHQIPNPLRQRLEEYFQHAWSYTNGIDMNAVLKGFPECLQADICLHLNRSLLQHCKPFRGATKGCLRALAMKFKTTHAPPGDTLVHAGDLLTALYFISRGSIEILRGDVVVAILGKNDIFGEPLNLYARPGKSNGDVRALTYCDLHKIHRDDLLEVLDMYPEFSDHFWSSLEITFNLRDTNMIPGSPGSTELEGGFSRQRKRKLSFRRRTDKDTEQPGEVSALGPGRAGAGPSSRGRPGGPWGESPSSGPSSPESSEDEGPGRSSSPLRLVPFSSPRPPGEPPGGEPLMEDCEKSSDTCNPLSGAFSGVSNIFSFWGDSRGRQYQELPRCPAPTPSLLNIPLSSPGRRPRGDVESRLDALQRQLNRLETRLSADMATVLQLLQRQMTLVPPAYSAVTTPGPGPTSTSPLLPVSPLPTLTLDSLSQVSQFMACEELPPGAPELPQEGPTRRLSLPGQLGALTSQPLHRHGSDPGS

Row | SMILES | MIC [1] [µg/mL] | MIC [2] [µg/mL] | human CLint [3] | MIC [4] [µg/mL] | mouse CLint [5] | MIC [6] [µg/mL] | MIC [7] [µg/mL] | MIC [8] [µg/mL] | IC50 [9] [µM] | MIC [10] [µg/mL]
1 | CNCc1ccc(-c2ccc(C3(O)C4CN(C)CC3CN(C(=O)Nc3cc(F)cc(F)c3)C4)nc2)c(C#N)c1 [Compound 17, (1R,5S,9r)-9-(5-(2-cyano-4-((methylamino)methyl)phenyl)pyridin-2-yl)-N-(3,5-difluorophenyl)-9-hydroxy-7-methyl-3,7-diazabicyclo[3.3.1]nonane-3-carboxamide] | 4 (≈ 7.51 µM) | 1.78 (≈ 3.34 µM) | 138 | 1.78 (≈ 3.34 µM) | >145 | 3.56 (≈ 6.68 µM) | 3.56 (≈ 6.68 µM) | 1.78 (≈ 3.34 µM) | > 30 | 3.56 (≈ 6.68 µM)
2 | CN1CC2CN(C(=O)Nc3cc(F)cc(F)c3)CC(C1)C2(O)c1ccc(-c2ccc(CN)cc2C#N)cn1 [Compound 24, (1R,5S,9r)-9-(5-(4-(aminomethyl)-2-cyanophenyl)pyridin-2-yl)-N-(3,5-difluorophenyl)-9-hydroxy-7-methyl-3,7-diazabicyclo[3.3.1]nonane-3-carboxamide] | 2 (≈ 3.86 µM) | 2 (≈ 3.86 µM) | 144 | 4 (≈ 7.71 µM) | >145 | 16 (≈ 30.9 µM) | 2 (≈ 3.86 µM) | 4 (≈ 7.71 µM) | > 30 | 4 (≈ 7.71 µM)
3 | CN1CC2CN(C(=O)Nc3cc(F)cc(F)c3)CC(C1)C2(O)c1ccc(-c2ccc(CN)cc2C#N)cc1 [Compound 23, (1R,5S,9r)-9-(4′-(aminomethyl)-2′-cyano-[1,1′-biphenyl]-4-yl)-N-(3,5-difluorophenyl)-9-hydroxy-7-methyl-3,7-diazabicyclo[3.3.1]nonane-3-carboxamide] | 2 (≈ 3.86 µM) | 2 (≈ 3.86 µM) | 93 | 2 (≈ 3.86 µM) | 105 | 4 (≈ 7.73 µM) | 2 (≈ 3.86 µM) | 2 (≈ 3.86 µM) | > 30 | 4 (≈ 7.73 µM)
